Results: patent US20200000752A1, “Method for Treating Epilepsy” (Vanderbilt University, priority 2016, published 2020)

Tests used:
CYP 1A2 = CYP 1A2 (Homo sapiens, UniProt P05177); assay: biochemical
Scn1a^+/− mice [1] = assay: Survival and seizure activity in Scn1a+/- mice after 1 month off celastrol; assay type: in vivo, mouse; conditions: 0.3 mg/kg 14 d on and 1 month off
Text: Intermittent dosing will greatly increase compliance and reduce side effects for long-term treatment. However, it is necessary to determine the duration the efficacy lasts after certain doses and the duration it takes to recover to baseline.

GABAergic mIPSCs = GABAergic mIPSCs in cortical layer VI pyramidal neurons of Gabrg2+/Q390X mice; assay type: in vivo, mouse
Text: […]. This effect is consistent with its upregulation of GABAA receptor subunits. There is no difference between the decay tau (time constant) in the condition treated with celastrol vs non treated. (n=7-9 cells from 3 mice in each group, *P<0.05, ** P<0.01 vs het).
Coronal ([…]) or horizontal ([…] thick) brain slices containing thalamic neurons in nucleus reticularis thalami (nRT), ventrobasal nucleus (VBn), Ventral lateral thalamus (VL) and cortex will be sectioned with a vibratome in ice-cooled solution containing (in mM) 214 Sucrose, 2.5 KCl, 1.25 NaH2PO4, 0.5 CaCl2), 10 MgSO4, 24 NaHCO3, and 11 D-glucose, pH 7.4 bubbled with 95% O2/5% CO2 at 4° C. Slices are then incubated in oxygenated artificial cerebrospinal fluid (ACSF)^40 at 36° C. for 30 min (Moyer and Brown, 1998). After this, slices will be kept at room temperature for at least 1 hr before recording on a Nikon Eclipse FN-1 IR-DIC microscope at room temperature. Pipette internal solution will contain (in mM): 135 CsCl, 10 EGTA, 10 HEPES, 5 ATP-Mg, and QX-314 (5 mM) (pH 7.25, 290-295 mOsm), and resistances will be of 2-4 MΩ (25). Tetrodotoxin (TIX) 1 μm will be added to the external solution. We will record the neurons in layer V-VI in somatosemsory cortex in this application. The experimental details have been described before^39.

GABAA receptor subunits = assay: Surface GABAA receptor subunit expression in Scn1a+/- mice; assay type: in vivo, mouse; conditions: 0.3 mg/kg IP for 14 days, cortex and thalamus
Protocol: The biotinylated surface proteins from either cortex (FIG. 15A) or thalamus (FIG. 15B) were analyzed by SDS-PAGE and immunoblotted with anti-GABAA receptor al subunit antibody. The protein IDVs of al subunits were normalized to its loading control and then to that in either cortex (cor) or thalamus (tha) in untreated wild-type mice (n==4) (FIGS. 15C and 15D). […] In FIGS. 15E and 15G, MJ stands for myoclonic jerks with behavioral correlation while GTCS for generalized tonic clonic seizures. The number of myoclonic jerks (MJ) and generalized tonic clonic seizures (GTCS) is the total number over 24 hrs. In G, mice were from the same litter, n=2 for each genotype.

AppSWE/PsenIdE9 mice = conditions: mouse, in vivo; cited from earlier work
[2] = Brain and plasma concentration of celastrol in mice (IP, oral gavage)
Text: For chronic dosing, samples were collected 2 hrs after drug administration.
Blood samples for drug bioanalysis will be collected in EDTA plasma tubes, immediately centrifuged, and the plasma fraction frozen at −80 C until analysis. Whole brains will also be frozen until analysis. […] Study samples, standards, and quality control samples will be precipitated with acetonitrile containing an internal standard, centrifuging the samples, and then injecting the supernatant onto a reverse phase LC/MS/MS system. Assay performance will be checked with retention time, peak shape, and quality control samples. The free drug concentration from animal studies will be calculated by multiplying the in vitro plasma free fraction (funbound) by the determined plasma concentrations. […] GABAA receptor subunits, AKT and neuronal survival signaling molecules, heat shock protein and synaptic scaffold proteins will be the focus.

Scn1a^+/− mice [3] = test system: Scn1a^+/− mice
Plasma protein binding = assay type: in vitro ADME; conditions: read-out: fraction unbound in plasma (fuplasma)
CYP 2C9 = CYP 2C9 (Homo sapiens, UniProt P11712); assay: biochemical
CYP 2C9, sequence (P11712 whole entry): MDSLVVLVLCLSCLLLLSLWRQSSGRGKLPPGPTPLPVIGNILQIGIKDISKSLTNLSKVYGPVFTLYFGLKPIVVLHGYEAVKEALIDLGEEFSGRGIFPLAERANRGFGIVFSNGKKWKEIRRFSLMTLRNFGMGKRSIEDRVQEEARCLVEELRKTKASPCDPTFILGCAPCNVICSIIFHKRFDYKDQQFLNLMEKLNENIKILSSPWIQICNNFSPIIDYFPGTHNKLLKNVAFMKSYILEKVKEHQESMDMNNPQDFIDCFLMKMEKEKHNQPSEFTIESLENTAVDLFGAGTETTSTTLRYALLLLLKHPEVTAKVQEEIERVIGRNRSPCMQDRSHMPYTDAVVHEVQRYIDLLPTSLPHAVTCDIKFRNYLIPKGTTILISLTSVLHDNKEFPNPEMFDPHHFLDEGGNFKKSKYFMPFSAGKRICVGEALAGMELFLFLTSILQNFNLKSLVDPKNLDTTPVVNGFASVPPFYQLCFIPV

[4] = biological target: T1, GABAA α1β2γ2(R82Q) receptors (Homo sapiens, UniProt P14867+P18507+P47870, R82Q); assay: Patch clamp current amplitude, α1β2γ2(R82Q) receptors in HEK 293T cells; assay type: cell-based; conditions: 1 μm, 4 hrs; GABA 1 mM
T1 construct: expressed in transfected cells; host or cells: HEK 293T
T1 sequence (P14867 28-456): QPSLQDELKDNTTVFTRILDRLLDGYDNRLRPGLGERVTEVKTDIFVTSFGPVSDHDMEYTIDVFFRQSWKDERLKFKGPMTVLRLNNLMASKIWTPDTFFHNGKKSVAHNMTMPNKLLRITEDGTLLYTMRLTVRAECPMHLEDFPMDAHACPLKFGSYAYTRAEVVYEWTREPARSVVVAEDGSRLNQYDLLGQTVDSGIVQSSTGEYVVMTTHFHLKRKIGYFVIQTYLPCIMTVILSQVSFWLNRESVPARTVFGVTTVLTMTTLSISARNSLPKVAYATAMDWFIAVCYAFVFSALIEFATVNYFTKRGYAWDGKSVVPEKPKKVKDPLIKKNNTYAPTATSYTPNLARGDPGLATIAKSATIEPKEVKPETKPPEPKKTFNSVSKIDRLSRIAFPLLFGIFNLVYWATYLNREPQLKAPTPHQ
T1 sequence (P47870 25-512 limits assumed): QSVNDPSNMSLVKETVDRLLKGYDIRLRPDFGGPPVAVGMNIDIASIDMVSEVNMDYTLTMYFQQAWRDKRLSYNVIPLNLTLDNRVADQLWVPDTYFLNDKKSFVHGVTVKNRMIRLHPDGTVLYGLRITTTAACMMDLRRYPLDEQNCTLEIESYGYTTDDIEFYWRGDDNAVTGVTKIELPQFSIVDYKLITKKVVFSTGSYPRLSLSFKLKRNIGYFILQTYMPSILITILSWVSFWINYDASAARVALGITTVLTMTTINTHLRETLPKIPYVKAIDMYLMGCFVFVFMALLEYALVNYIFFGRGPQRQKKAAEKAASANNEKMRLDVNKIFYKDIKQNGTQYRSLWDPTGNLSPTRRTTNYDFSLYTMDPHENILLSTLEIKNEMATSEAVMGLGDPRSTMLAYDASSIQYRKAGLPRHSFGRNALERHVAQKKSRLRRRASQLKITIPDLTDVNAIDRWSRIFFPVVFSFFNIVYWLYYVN
T1 sequence (P18507 40-467 isoform P18507-1 R82Q limits assumed): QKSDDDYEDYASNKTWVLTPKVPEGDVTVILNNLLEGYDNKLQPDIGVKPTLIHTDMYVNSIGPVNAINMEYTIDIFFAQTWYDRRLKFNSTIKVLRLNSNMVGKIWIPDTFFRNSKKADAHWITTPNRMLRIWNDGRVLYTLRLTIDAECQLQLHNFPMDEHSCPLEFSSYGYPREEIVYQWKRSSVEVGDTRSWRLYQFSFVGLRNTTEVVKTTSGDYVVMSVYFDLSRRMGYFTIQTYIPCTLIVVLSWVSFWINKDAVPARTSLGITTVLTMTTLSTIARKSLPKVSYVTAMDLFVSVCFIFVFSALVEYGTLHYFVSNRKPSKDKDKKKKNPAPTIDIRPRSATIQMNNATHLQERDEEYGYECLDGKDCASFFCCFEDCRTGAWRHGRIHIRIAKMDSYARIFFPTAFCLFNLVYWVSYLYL
Protocol: HEK 293T cells were transfected with the human GABAA receptor α1, β2 subunits with the wild-type γ2s, the mutant γ2s(Q390X) or γ2s(R82Q) subunits for 48 hrs. […] A. Lifted whole cells were recorded with the application of GABA 1 mM for 6 sec. Cells was voltage clamped at −50 mV.
HEK 293T cells were transfected with the human GABAA receptor α1, β2 subunits with the wild-type γ2s, the mutant γ2s(Q390X) or γ2s(R82Q) subunits for 48 hrs.

[5] = PK of celastrol from IV, IP and PO studies in C57BL/6J mice; conditions: male, mouse, whole blood
Scn1a^+/− mouse = assay: Chronic intermittent dosing toxicity in an Scn1a+/- mouse; assay type: in vivo
Text: An eight-month old male Scn1a^+/− mouse with chronic intermittent dosing was investigated for cortex and hippocampus neuronal survival, which was normal (FIG. 8A).

[6] = Caco-2 intrinsic permeability; conditions: human
Caco2 cells = assay: Caco-2 intrinsic permeability
[7] = 3 litters with 6-8 grossly normal pups

CYP 1A2, sequence (P05177 whole entry): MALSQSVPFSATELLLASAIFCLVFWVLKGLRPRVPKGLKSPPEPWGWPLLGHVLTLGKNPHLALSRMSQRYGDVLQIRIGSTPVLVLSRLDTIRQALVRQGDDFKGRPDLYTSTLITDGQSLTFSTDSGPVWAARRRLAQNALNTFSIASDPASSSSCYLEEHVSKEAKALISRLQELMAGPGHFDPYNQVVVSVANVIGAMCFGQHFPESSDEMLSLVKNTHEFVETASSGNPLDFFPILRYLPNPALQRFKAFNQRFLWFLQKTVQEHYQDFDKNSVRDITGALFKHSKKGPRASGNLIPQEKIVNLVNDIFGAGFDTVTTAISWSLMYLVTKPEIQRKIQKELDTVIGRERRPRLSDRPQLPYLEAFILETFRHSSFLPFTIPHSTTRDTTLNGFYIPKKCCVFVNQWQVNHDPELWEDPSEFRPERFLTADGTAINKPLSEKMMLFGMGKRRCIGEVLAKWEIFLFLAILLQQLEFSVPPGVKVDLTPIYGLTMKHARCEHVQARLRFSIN

SMILES: CC1=C(O)C(=O)C=C2C1=CC=C1[C@@]2(C)CC[C@@]2(C)[C@@H]3C[C@](C)(C(=O)O)CC[C@]3(C)CC[C@]12C [Celastrol, 3-Hydroxy-9β,13α-dimethyl-2-oxo-24,25,26-trinoroleana-1(10),3,5,7-tetraen-29-oic acid]
- IC50 (CYP 1A2): > 10 µM
- seizure duration after PTZ (Scn1a^+/− mice [1]): shortened seizure duration
- seizure onset after PTZ (Scn1a^+/− mice [1]): delayed seizure onset
- seizure severity after PTZ (Scn1a^+/− mice [1]): reduced seizure severity
- survival (Scn1a^+/− mice [1]; vs untreated littermates): increased survival
- amplitude of GABAergic mIPSCs (GABAergic mIPSCs; 0.3 mg/kg IP for 14 days): increased
- frequency of GABAergic mIPSCs (GABAergic mIPSCs; 0.3 mg/kg IP for 14 days): increased
- decay tau (time constant) (GABAergic mIPSCs; treated vs non treated): no difference
- surface GABAA receptor subunit expression (GABAA receptor subunits): Increased
- memory (AppSWE/PsenIdE9 mice): improve memory
- celastrol concentration in the mouse brain ([2]; level with good efficacy): 120-150 nm
- Kp at 24 h ([2]; mouse, brain, intraperitoneal, 0.3 mg/kg): > 1.2
- concentration at 2 h ([2]; mouse, brain, po, 3 mg/kg): 121 nM
- Number SWDs (Scn1a^+/− mice [3]; SWDs over 1 sec, 30 min after PTZ 50 mg/kg, n=2, celastrol 0.3 mg/kg intermittent (8th day of drug holiday), diazepam 0.3 mg/kg, stiripentol 150 mg/kg, saline 21): 2
- efficacy in reducing seizure severity versus comparators (Scn1a^+/− mice [3]; chronic intermittent dosing 0.3 mg/kg IP): Better Efficacy in Reducing Seizure Severity than Diazepam or Stiripentol
- fraction unbound (Plasma protein binding): < 0.022
- IC50 (CYP 2C9): 4.88 µM
- current amplitude [4]: increased
- bioavailability [5]: ~20%
- bioavailability ([5]; 10 mg/kg): 20%
- fertility (Scn1a^+/− mouse; [7]): normal fertility
- teratogenicity (Scn1a^+/− mouse; [7]): no teratogenicity
- HE staining of liver, kidney and heart (Scn1a^+/− mouse; chronic intermittent dosing): Normal cell numbers, morphology and viability
- HE staining of lung, spleen, intestine, testis, leg muscle and skin (Scn1a^+/− mouse; chronic intermittent dosing): no abnormalities were identified
- blood counts (Scn1a^+/− mouse; chronic intermittent dosing): normal blood counts
- organ function, total protein and metabolics (Scn1a^+/− mouse; chronic intermittent dosing): normal function of liver, heart and kidney and normal total protein and metabolics
- cortex and hippocampus neuronal survival (Scn1a^+/− mouse; eight-month old male, chronic intermittent dosing): normal
- Papp at 2 h, 2 microM [6]: ≥ 1 ×10⁻⁶ cm/s
- membrane permeability in Caco2 assay, in words (Caco2 cells): high membrane permeability
